Experimental data as given in US9399904B2, “Oil recovery system and method” (SHELL OIL COMPANY, priority 2013, dated 2016).

Test: Oil recovery from oil saturated formation core by brine displacement followed by DMS displacement
Settings: after waterflooding with brine
Description: Incremental recovery of oil from a formation core using an oil recovery formulation consisting of dimethyl sulfide following oil recovery from the core by water-flooding was measured to evaluate the effectiveness of DMS as a tertiary oil recovery agent.
Two 5.02 cm long Berea sandstone cores with a core diameter of 3.78 cm and a permeability between 925 and 1325 mD were saturated with a brine having a composition as set forth in Table 7.
After saturation of the cores with brine, the brine was displaced by a Middle Eastern Asphaltic crude oil having the characteristics as set forth above in Table 3 to saturate the cores with oil.
Oil was recovered from each oil saturated core by the addition of brine to the core under pressure and by subsequent addition of DMS to the core under pressure. Each core was treated as follows to determine the amount of oil recovered from the core by addition of brine followed by addition of DMS. Oil was initially displaced from the core by addition of brine to the core under pressure. A confining pressure of 1 MPa was applied to the core during addition of the brine, and the flow rate of brine to the core was set at 0.05 ml/min. The core was maintained at a temperature of 50° C. during displacement of oil from the core with brine. […]

oil recovered, of the oil remaining in the core after the waterflood: approximately 60%
Compound: CSC [Dimethyl Sulfide, dimethyl sulfide]
